Our source for the Km, IC50 and Ki values is article PMC8372549 (Toxicology and applied pharmacology, 2021).

What all share (assay type): biochemical
For assay [1], the target named is T1, cytochrome P450 1A1 (Homo sapiens, UniProt P04798).
T1 sequence (P04798 1-512): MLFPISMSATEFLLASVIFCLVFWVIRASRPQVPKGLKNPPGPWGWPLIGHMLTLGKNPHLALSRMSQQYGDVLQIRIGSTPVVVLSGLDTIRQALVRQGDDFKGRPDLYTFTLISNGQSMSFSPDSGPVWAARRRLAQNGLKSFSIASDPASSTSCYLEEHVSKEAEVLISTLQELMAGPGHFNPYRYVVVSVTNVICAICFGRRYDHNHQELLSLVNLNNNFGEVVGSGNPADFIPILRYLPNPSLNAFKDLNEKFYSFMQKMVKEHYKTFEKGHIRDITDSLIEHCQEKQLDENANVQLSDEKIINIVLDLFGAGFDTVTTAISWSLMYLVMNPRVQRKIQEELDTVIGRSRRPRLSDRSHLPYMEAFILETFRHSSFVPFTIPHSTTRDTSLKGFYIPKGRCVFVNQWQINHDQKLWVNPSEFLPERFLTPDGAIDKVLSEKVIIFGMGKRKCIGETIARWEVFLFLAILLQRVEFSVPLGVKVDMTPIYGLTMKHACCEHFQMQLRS
The assay is described as follows: fluorometric O-deethylation by recombinant CYP1A1 bactosomes. To be noted: cited from earlier work.

A further assay has as its target T2, CYP1B1 (Homo sapiens, UniProt Q16678).
T2 sequence (Q16678 1-543): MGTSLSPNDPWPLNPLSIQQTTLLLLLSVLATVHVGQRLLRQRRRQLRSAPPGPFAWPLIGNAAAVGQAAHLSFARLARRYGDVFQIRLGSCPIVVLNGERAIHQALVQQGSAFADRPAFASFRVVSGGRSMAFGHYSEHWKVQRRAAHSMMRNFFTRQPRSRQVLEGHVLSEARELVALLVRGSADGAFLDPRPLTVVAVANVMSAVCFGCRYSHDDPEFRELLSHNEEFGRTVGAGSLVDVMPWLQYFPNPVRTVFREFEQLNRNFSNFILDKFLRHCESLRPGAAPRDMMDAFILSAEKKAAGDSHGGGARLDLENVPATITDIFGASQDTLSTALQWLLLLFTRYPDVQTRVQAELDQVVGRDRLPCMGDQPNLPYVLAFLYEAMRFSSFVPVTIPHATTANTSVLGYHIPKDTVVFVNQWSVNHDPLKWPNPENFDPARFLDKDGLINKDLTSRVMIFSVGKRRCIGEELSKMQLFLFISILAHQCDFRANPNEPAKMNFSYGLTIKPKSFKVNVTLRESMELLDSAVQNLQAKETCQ
Briefly: fluorometric 7-ethoxyresorufin O-deethylation with recombinant CYP1B1 bactosomes.

The target in assay [2] is T1, cytochrome P450 1A1. The assay is described as follows: fluorometric CEC O-deethylation with recombinant CYP1A1 bactosomes.

Consider `CCOc1ccc2cc(C#N)c(=O)oc2c1` [CEC, 3-cyano-7-ethoxycoumarin], for which, on cytochrome P450 1A1 [1], the Km (commonly the concentration of substrate that gives half-maximal velocity) is 500 nM. For the compound `c1ccc(CSSSCc2ccccc2)cc1` [DTS, dibenzyl trisulfide], on CYP1B1, the IC50 (in general, the midpoint of a concentration-inhibition curve) worked out at 1700 ± 300 nM. The inhibition constant Ki (commonly a dissociation constant, usually derived from enzyme kinetics or from competition with a known ligand) at cytochrome P450 1A1 [2] came out at 4.55 ± 0.37 µM.
